The values below come from article PMC10609143, “Inhibitory Mechanisms of Lekethromycin in Dog Liver Cytochrome P450 Enzymes Based on UPLC-MS/MS Cocktail Method” (Molecules, 2023).

Where two headings read alike, the source gives them in different places.

The subject of data set [1] is CYP2A6. Nature of the data set: Enzyme kinetic study of probe substrate in dog liver microsomes. It is filed as in vitro ADME. For orientation: Microsomes from liver hold many membrane-bound enzymes, among them those of drug oxidation.
For data set [2], the system named is CYP2A6. More on the design: method as in PMID 11307970. The conditions noted are these: dog liver microsomes, literature; cited from earlier work.
Data set [3] deals with CYP2D6. The conditions noted are these: in vitro drug metabolism studies; cited from earlier work.
The subject of data set [4] is CYP1A2. More on the design: method as in PMID 12433797. To be noted: in vitro drug metabolism studies; cited from earlier work.
Data set [5] can be described thus: Enzyme kinetic study of probe substrate in dog liver microsomes. Type of data set: in vitro ADME. To be noted: pH 7.4, probe testosterone (6β-hydroxylation), 15 min, 0.2 mg/mL, n = 3, read-out: Km (Michaelis–Menten constant). How it is done:
(§1) The CYP450 enzymatic activities were characterized by their probe substrate reactions. Incubation mixtures were prepared in a total volume of 200 μL, which consisted of PBS (pH = 7.4), NADPH, probe substrates, and various concentrations of tested compounds. NADPH was added to initiate the reaction after a 5 min preincubation period at 37 °C in a thermos shaker. Of note, the volume of the final organic solvent in the incubation system should be below <1% (v/v). All experiments were performed in triplicate.
(§2) The Vmax and Km were calculated using GraphPad Prism v.8.0.2 (GraphPad software Inc., San Diego, CA, USA) via the Michaelis–Menten kinetic model. In addition, incubation times of 0–60 min were examined for mixed probe substrates. Various DLM protein concentrations (0.05–1 mg/mL) in the incubation mixture were carried out.
(§3) Then, 400 μL of cool ACN containing the 20 μL internal standard was added to terminate the reaction. Samples were vortexed for 2 min and centrifuged at 14,000 rpm for 10 min (4 °C). Next, the supernatant was steamed under nitrogen (40 °C) until dry. Then, it was dissolved with 200 µL of ACN: H2O = 80:20 (v/v). Finally, after filtering with a 0.22 μm membrane, an aliquot of 5 µL was injected into the UPLC-MS/MS for analysis.

Data set [6] has as its system CYP3A4. The data set is described as above. Type of data set: in vitro ADME. To be noted: testosterone 6β-hydroxylation, n = 3. How it is done:
as §1, §2, §3

Data set [7] has as its system CYP3A4. To be noted: dog liver microsomes, literature; cited from earlier work.
Data set [8] relates to CYP3A4. To be noted: rat; cited from earlier work.
For data set [9], the system named is CYP3A4. To be noted: mini-pig; cited from earlier work.
Substrate in data set [10]: COc1ccc2c(c1)[C@]13CCCC[C@@H]1[C@H](C2)N(C)CC3
Nature of the data set: cells, lysate or membranes named. The conditions noted are these: other: dextromethorphan O-demethylation, dog liver microsomes, 15 min, 0.2 mg/mL, n = 3; pH 7.4.

Substrate in data set [11]: CC(NC(C)(C)C)C(=O)c1cccc(Cl)c1
The data set is described as follows: Enzyme kinetic study of probe substrate in dog liver microsomes. It is filed as in vitro ADME. The conditions noted are these: other: bupropion hydroxylation, 15 min, 0.2 mg/mL, n = 3, pH 7.4.

Substrate in data set [12]: CCOc1ccc(NC(C)=O)cc1
The data set is described as follows: cells, lysate or membranes named. To be noted: other: phenacetin O-deethylation, dog liver microsomes, 15 min, 0.2 mg/mL, n = 3; pH 7.4.

Broadly, the Km is the substrate concentration at which the rate is half of its maximum. One may read the Vmax as the rate approached at saturating substrate. For the molecule `O=c1ccc2ccccc2o1` [CAN, coumarin], the “Vmax (maximum rate of an enzyme-catalyzed reaction)” value in data set [1] (coumarin hydroxylation, n = 3) was 0.034 nmol/min/mg protein. Moreover, the Km at 15 min in [1] (pH 7.4, probe coumarin (hydroxylation), 15 min, 0.2 mg/mL, n = 3, read-out: Km (Michaelis–Menten constant)) was determined as 0.41 µM. For the same molecule, in [2], the Km is 2 to 4.3 µM and the Vmax is 1488–1656 pmol/min/mg/microsomal protein.
Regarding `COc1ccc2c(c1)[C@]13CCCC[C@@H]1[C@H](C2)N(C)CC3` [DEX, dextromethorphan], in data set [3], the Km is 2 to 10 µM.
On to `CCOc1ccc(NC(C)=O)cc1` [PH, phenacetin], for which the Km in [4] is 10 to 50 µM.
With `C[C@]12CC[C@H]3[C@@H](CCC4=CC(=O)CC[C@@]43C)[C@@H]1CC[C@@H]2O` [TS, testosterone], the Km at 15 min in data set [5] was found to be 85.2 µM. In addition, the “Vmax (maximum rate of an enzyme-catalyzed reaction)” value in data set [6] amounted to 1.49 nmol/min/mg protein. For the same molecule, the Km in data set [7] was 192 µM; in data set [8], 84 µM; in data set [9] it was 79 µM. In data set [7], the Vmax is reported as 68–180 pmol/min/mg/microsomal protein.

B1: CYP2D6 (Canis lupus familiaris) (protein)
chain: MGLLTGDTLGPLAVAVAIFLLLVDLMHRRRRWATRYPPGPTPVPMVGNLLQMDFQEPICYFSQLQGRFGNVFSLELAWTPVVVLNGLEAVREALVHRSEDTADRPPMPIYDHLGLGPESQGLFLARYGRAWREQRRFSLSTLRNFGLGRKSLEQWVTEEASCLCAAFAEQAGRPFGPGALLNKAVSNVISSLTYGRRFEYDDPRLLQLLELTQQALKQDSGFLREALNSIPVLLHIPGLASKVFSAQKAIITLTNEMIQEHRKTRDPTQPPRHLIDAFVDEIEKAKGNPKTSFNEENLCMVTSDLFIAGMVSTSITLTWALLLMILHPDVQRRVQQEIDEVIGREQLPEMGDQTRMPFTVAVIHEVQRFGDIVPLGVPHMTSRDTEVQGFLIPKGTTLITNLSSVLKDEKVWKKPFRFYPEHFLDAQGHFVKHEAFMPFSAGRRVCLGEPLARMELFLFFTCLLQRFSFSVPAGQPRPSDHGVFTFLKVPAPFQLCVEPR
Consider B1, for which, in data set [10], the Km worked out at 6.33 µM and the Vmax came out at 0.00616 µmol/min/mg.

B2: CYP2B6 (Canis lupus familiaris) (protein)
chain: MELSVLLLLALLTGLLLLMARGHPKAYGHLPPGPRPLPILGNFLQMDRKGLLKSFLRLQEKYGDVFTVYLGPRRTVMLCGIDAIREALVDNAEAFSGRGKIAVVEPVFQGYGVVFANGERWKTLRRFSLATMRDFGMGKRSVEERIQEEAQCLVEELRKTEGVLQDPTFFFHSMTANIICSIVFGKRFGYKDPEFLRLMNLFYVSFALISSFSSQMFELFHSFLKYFPGTHRQVYNNLQEIKAFIARMVEKHRETLDPSAPRDFIDAYLIRMDKEKAEPSSEFHHRNLIDTALSLFFAGTETTSTTLRYGFLLMLKYPHIAERIYKEIDQVIGPHRLPSLDDRAKMPYTDAVIHEIQRFGDLLPIGVPHMVTKDICFRGYIIPKGTEVFPILHSALNDPHYFEKPDVFNPDHFLDANGALKKNEAFIPFSIGKRICLGEGIARMELFLFFTTILQNFSVASPMAPEDIDLTPQEIGVGKLPPVYQISFLSRGGC
notes: from tissue; host or cells: dog liver microsomes (DLM)
B2: in data set [11], the Km turned out to be 9.15 µM and the Vmax is 0.00143 µmol/min/mg.

B3: CYP1A2 (Canis lupus familiaris) (protein)
chain: MALSQMATGLLLASTIFCLILWVVKAWQPRLPKGLKSPPGPWGWPLLGNVLTLGKSPHLALSRLSQRYGDVLQIRIGSTPVLVLSGLDTIRQALVRQGDDFKGRPDLYSLSLITDSQSMSFSPDSGPVWAAGRRLAQNALNTFSIASDPASSCSCYLEEHVSKEAEALLSRLQEQMAEVGRFDPYNQVLLSVANVIGAMCFGHHFSQRSEEMLPLLMSSSDFVETVSSGNPLDFFPILQYMPNSALQRFKNFNQTFVQSLQKIVQEHYQDFDERSVQDITGALLKHNEKSSRASDGHIPQEKIVNLINDIFGAGFDTVTTAISWSLMYLVANPEIQRQIQKELDTVIGRARQPRLSDRPQLPLMEAFILEIFRHTSFVPFTIPHSTTKDTTLKGFYIPKECCVFINQWQVNHDQQVWGDPFAFRPERFLTADGTTINKTLSEKVMLFGMGKRRCIGEVLAKWEIFLFLAILLQRLEFSVPAGVKVDLTPIYGLTMKHTRCEHVQARPRFSIK
As to B3, in data set [12], the Km worked out at 5.39 µM and the maximum rate (Vmax) was 0.00022 µmol/min/mg.
